Test results as given in ChEMBL document CHEMBL3627653, “Synthesis and biological evaluation of spiro[cyclopropane-1,3'-indolin]-2'-ones as potential anticancer agents” (Bioorg Med Chem Lett, 2015).

Columns and labels:
Format in all cases: functional, cell-based
[1] = system: HeLa; experiment: Anticancer activity against human HeLa cells assessed as reduction in cell viability incubated for 48 hrs by MTT assay
[2] = system: MCF7; experiment: Anticancer activity against human MCF7 cells assessed as reduction in cell viability incubated for 48 hrs by MTT assay; conditions: MCF7, 48 h
[3] = system: DU-145; experiment: Anticancer activity against human DU145 cells assessed as reduction in cell viability incubated for 48 hrs by MTT assay; conditions: DU-145, 48 h
[4] = system: HT-29; experiment: Anticancer activity against human HT-29 cells assessed as reduction in cell viability incubated for 48 hrs by MTT assay; conditions: HT-29, 48 h
[5] = system: A549; experiment: Anticancer activity against human A549 cells assessed as reduction in cell viability incubated for 48 hrs by MTT assay; conditions: A549, 48 h

With `CCOC(=O)[C@H]1[C@H](C(O)c2ccc([N+](=O)[O-])cc2)C12C(=O)Nc1ccc(Br)cc12` (stereo partly drawn) the IC50 [1] was 28.8 µM, the IC50 [2] was > 100 µM and the IC50 [3] was 27.8 µM. For the same compound, the IC50 [4] was 23.4 µM and the IC50 [5] was 21.1 µM.

Work on `CCOC(=O)[C@@H]1[C@@H](C(=O)c2ccccc2)C12C(=O)Nc1ccccc12` (stereo partly drawn) yielded an IC50 [1] of 7.24 µM, an IC50 [2] of 2.95 µM and an IC50 [3] of 1.69 µM. The IC50 [4] was 2.75 µM and the IC50 [5] was 4.16 µM.

With `CCOC(=O)[C@H]1C(C(=O)c2ccc(OC)cc2)C12C(=O)Nc1ccc(Cl)cc12` (stereo partly drawn) the IC50 [1] was 9.12 µM, the IC50 [2] was 9.33 µM and the IC50 [3] was 5.01 µM. The IC50 [4] was 9.54 µM and the IC50 [5] was 6.42 µM.

`CCOC(=O)[C@H]1[C@H](C(=O)OCC)C12C(=O)Nc1ccc(Cl)cc12` (relative stereo) gave an IC50 [1] of 25.1 µM, an IC50 [2] of 24 µM and an IC50 [3] of 19.9 µM. It also gave an IC50 [4] of 22.9 µM and an IC50 [5] of 29 µM.

In the case of `CCOC(=O)[C@H]1[C@H](C(=O)OCC)C12C(=O)Nc1ccc(Br)cc12` (relative stereo), the IC50 [1] is reported as 62.8 µM, the IC50 [2] is reported as > 100 µM and the IC50 [3] is reported as 50.7 µM. For the same compound, the IC50 [4] was 30.9 µM and the IC50 [5] was > 100 µM.

Compound `CCOC(=O)[C@H]1[C@H](C(=O)OCC)C12C(=O)Nc1ccc(F)cc12` (relative stereo) has an IC50 [1] of 84.2 µM, an IC50 [2] of 36.8 µM and an IC50 [3] of 24.3 µM. It also gave an IC50 [4] of 36.6 µM and an IC50 [5] of 78.2 µM.

With `CCOC(=O)[C@H]1[C@H](C(=O)OCC)C12C(=O)Nc1ccccc12` (relative stereo) the IC50 [1] was 61.3 µM, the IC50 [2] was 57.5 µM and the IC50 [3] was 18.6 µM. The IC50 [4] was 18.9 µM and the IC50 [5] was > 100 µM.

In the case of `CCOC(=O)[C@H]1[C@H](C(=O)OCC)C12C(=O)Nc1ccc([N+](=O)[O-])cc12` (relative stereo), the IC50 [1] is reported as 32.9 µM, the IC50 [2] is reported as 71.6 µM and the IC50 [3] is reported as 38 µM. For the same compound, the IC50 [4] was 50.1 µM and the IC50 [5] was > 100 µM.

`CCOC(=O)[C@H]1[C@H](C(=O)OCC)C12C(=O)N(C)c1ccccc12` (relative stereo) was tested, and the IC50 [1] was 32.2 µM, the IC50 [2] was 32.1 µM and the IC50 [3] was 39.8 µM. For the same compound, the IC50 [4] was 26.9 µM and the IC50 [5] was 74.2 µM.

For `CCOC(=O)[C@H]1[C@H](C(=O)c2ccc(Cl)cc2)C12C(=O)Nc1ccccc12` (relative stereo), the IC50 [1] was 19.9 µM, the IC50 [2] was 18.6 µM and the IC50 [3] was 15.8 µM. The IC50 [4] was 23.7 µM and the IC50 [5] was 12.9 µM.

With `CCOC(=O)[C@H]1[C@H](C(=O)c2ccc(OC)cc2)C12C(=O)Nc1ccccc12` (relative stereo) the IC50 [1] was 26.3 µM, the IC50 [2] was 19.1 µM and the IC50 [3] was 17.4 µM. For the same compound, the IC50 [4] was 14.7 µM and the IC50 [5] was 9.77 µM.

For `CCOC(=O)[C@H]1[C@H](C(=O)c2ccc3ccccc3c2)C12C(=O)Nc1ccccc12` (relative stereo), the IC50 [1] was 20 µM, the IC50 [2] was 31.1 µM and the IC50 [3] was 17.2 µM. The IC50 [4] was 18 µM and the IC50 [5] was 12.6 µM.

For `CCOC(=O)[C@H]1[C@H](C(=O)c2ccc([N+](=O)[O-])cc2)C12C(=O)Nc1ccccc12` (relative stereo), the IC50 [1] was 41.3 µM, the IC50 [2] was 22.1 µM and the IC50 [3] was 19.8 µM. The IC50 [4] was 25.1 µM and the IC50 [5] was 19.1 µM.

Compound `CCOC(=O)[C@H]1[C@H](C(=O)c2ccc(OC)c([N+](=O)[O-])c2)C12C(=O)Nc1ccccc12` (relative stereo) has an IC50 [1] of 7.76 µM, an IC50 [2] of 9.77 µM and an IC50 [3] of 6.36 µM. The IC50 [4] was 7.24 µM and the IC50 [5] was 4.79 µM.

`CCOC(=O)[C@H]1[C@H](C(=O)c2cc(OC)c(OC)c(OC)c2)C12C(=O)Nc1ccccc12` (relative stereo) showed an IC50 [1] of 32.8 µM, an IC50 [2] of 50.1 µM and an IC50 [3] of 15.8 µM. For the same compound, the IC50 [4] was 8.51 µM and the IC50 [5] was 17.7 µM.

For `CCOC(=O)[C@H]1[C@H](C(=O)c2cc(OC)c(OC)c(OC)c2)C12C(=O)Nc1ccc(Cl)cc12` (relative stereo), the IC50 [1] was 39.8 µM, the IC50 [2] was 37.5 µM and the IC50 [3] was 21.9 µM. For the same compound, the IC50 [4] was 25.1 µM and the IC50 [5] was 24.1 µM.

`CCOC(=O)[C@H]1[C@H](C(=O)c2ccc(Cl)cc2)C12C(=O)Nc1ccc(Cl)cc12` (relative stereo) was tested, and the IC50 [1] was > 100 µM, the IC50 [2] was 30.8 µM and the IC50 [3] was > 100 µM. It also gave an IC50 [4] of 79.4 µM and an IC50 [5] of 32.4 µM.

`CCOC(=O)[C@H]1[C@H](C(=O)c2ccc(C)cc2)C12C(=O)Nc1ccc(Cl)cc12` (relative stereo) was tested, and the IC50 [1] was > 100 µM, the IC50 [2] was 90.2 µM and the IC50 [3] was > 100 µM. The IC50 [4] was > 100 µM and the IC50 [5] was > 100 µM.

`CCOC(=O)[C@H]1[C@H](C(=O)c2ccc(OC)c(OC)c2)C12C(=O)Nc1ccc(Cl)cc12` (relative stereo) gave an IC50 [1] of 13 µM, an IC50 [2] of 20.3 µM and an IC50 [3] of 8.31 µM. The IC50 [4] was 9.92 µM and the IC50 [5] was 7.07 µM.

For `CCOC(=O)[C@H]1[C@H](C(=O)c2ccc3ccccc3c2)C12C(=O)Nc1ccc(Cl)cc12` (relative stereo), the IC50 [1] was 7.76 µM, the IC50 [2] was 4.89 µM and the IC50 [3] was 5.24 µM. The IC50 [4] was 5.01 µM and the IC50 [5] was 6.16 µM.

`CCOC(=O)[C@H]1[C@H](C(=O)c2ccc([N+](=O)[O-])cc2)C12C(=O)Nc1ccc(Cl)cc12` (relative stereo) gave an IC50 [1] of 10.7 µM, an IC50 [2] of 4.26 µM and an IC50 [3] of 2.88 µM. The IC50 [4] was 2.95 µM and the IC50 [5] was 3.59 µM.

In the case of `CCOC(=O)[C@H]1[C@H](C(=O)c2ccccc2)C12C(=O)N(C)c1ccccc12` (relative stereo), the IC50 [1] is reported as 19.5 µM, the IC50 [2] is reported as 13.2 µM and the IC50 [3] is reported as 7.94 µM. It also gave an IC50 [4] of 16.1 µM and an IC50 [5] of 7.24 µM.

`CCOC(=O)[C@H]1[C@H](C(=O)c2ccc3ccccc3c2)C12C(=O)N(C)c1ccccc12` (relative stereo) was tested, and the IC50 [1] was > 100 µM, the IC50 [2] was 75.9 µM and the IC50 [3] was > 100 µM. For the same compound, the IC50 [4] was > 100 µM and the IC50 [5] was 98.5 µM.

In the case of `CCOC(=O)[C@H]1[C@H](C(=O)c2ccc(C)cc2)C12C(=O)N(C)c1ccccc12` (relative stereo), the IC50 [1] is reported as 33.5 µM, the IC50 [2] is reported as 24.7 µM and the IC50 [3] is reported as 7.24 µM. The IC50 [4] was 23.9 µM and the IC50 [5] was 5.49 µM.

Compound `CCOC(=O)[C@H]1[C@H](C(=O)c2ccc([N+](=O)[O-])cc2)C12C(=O)N(C)c1ccccc12` (relative stereo) has an IC50 [1] of 51.2 µM, an IC50 [2] of 37.1 µM and an IC50 [3] of 18.9 µM. The IC50 [4] was 19.7 µM and the IC50 [5] was 26.1 µM.

`CCOC(=O)[C@H]1[C@H](C(=O)c2ccc(Cl)cc2)C12C(=O)N(C)c1ccccc12` (relative stereo) was tested, and the IC50 [1] was 12.6 µM, the IC50 [2] was 12.6 µM and the IC50 [3] was 6.3 µM. It also gave an IC50 [4] of 8.51 µM and an IC50 [5] of 6.56 µM.

`CCOC(=O)[C@H]1[C@H](C(=O)c2ccc(OC)cc2)C12C(=O)N(C)c1ccccc12` (relative stereo) showed an IC50 [1] of 15.4 µM, an IC50 [2] of 18.2 µM and an IC50 [3] of 15 µM. The IC50 [4] was 13.2 µM and the IC50 [5] was 5.88 µM.

With `CCOC(=O)[C@H]1[C@H](C(=O)c2ccc(OC)cc2)C12C(=O)Nc1ccc(Br)cc12` (relative stereo) the IC50 [1] was 45.1 µM, the IC50 [2] was 41.6 µM and the IC50 [3] was 31.7 µM. For the same compound, the IC50 [4] was 33.7 µM and the IC50 [5] was 79.4 µM.

With `CCOC(=O)[C@H]1[C@H](C(=O)c2ccc3ccccc3c2)C12C(=O)Nc1ccc(Br)cc12` (relative stereo) the IC50 [1] was > 100 µM, the IC50 [2] was 29.3 µM and the IC50 [3] was 36.9 µM. The IC50 [4] was 79.4 µM and the IC50 [5] was 25 µM.

For `CCOC(=O)[C@H]1[C@H](C(=O)c2ccc(Cl)cc2)C12C(=O)Nc1ccc(Br)cc12` (relative stereo), the IC50 [1] was 62.1 µM, the IC50 [2] was 12.2 µM and the IC50 [3] was 8.12 µM. It also gave an IC50 [4] of 8.47 µM and an IC50 [5] of 15.8 µM.

`COc1cccc2c1C(=O)c1c(O)c3c(c(O)c1C2=O)C[C@@](O)(C(=O)CO)C[C@@H]3O[C@H]1C[C@H](N)[C@H](O)[C@H](C)O1` [DOXORUBICIN] was tested, and the IC50 [1] was 1.51 µM, the IC50 [3] was 1.94 µM and the IC50 [4] was 0.93 µM.
